Results as given in patent US8415486B2, “IAP inhibitors” (TetraLogic Pharmaceuticals Corp., priority 2009, dated 2013).

Legend:
[1] = target: T1, XIAP BIR-3 (Homo sapiens, UniProt P98170); assay: Fluorescence polarization binding to XIAP BIR-3 with labeled peptide AbuRPF-K(5-Fam)-NH2; settings: 40 nM BIR3, 5 nM labeled peptide, reported as ranges
T1 construct: 40 nM of the respective IAP BIR3
Method in brief: (§1)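 Competitive FP: compounds titrated against 5 nM AbuRPF-K(5-Fam)-NH2 tracer and 40 nM BIR3 protein, 15 min at RT in 0.1 M potassium phosphate pH 7.5 with bovine γ-globulin. Polarization read at 485/520 nm; KD reported in ranges A <0.1, B 0.1–1, C >1–10, D >10 μM.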

[2] = target: T2, cIAP-1 BIR-3 (Homo sapiens, UniProt Q13490); assay: Fluorescence polarization binding to cIAP-1 BIR-3 with labeled peptide AbuRPF-K(5-Fam)-NH2; settings: 40 nM BIR3, 5 nM labeled peptide, reported as ranges, read-out: KD (c-IAP-1 BIR3)
T2 construct: 40 nM of the respective IAP BIR3
T2 sequence (Q13490 253-363 limits assumed): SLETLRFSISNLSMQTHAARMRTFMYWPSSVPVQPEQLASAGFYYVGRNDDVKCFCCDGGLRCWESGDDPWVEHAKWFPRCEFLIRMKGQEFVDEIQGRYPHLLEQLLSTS
Method in brief: as §1

[3] = system: ovarian cancer cell line, SK-OV-3; assay: SK-OV-3 cell growth inhibition (MTT, 72 hrs); type: cell-based; settings: Homo sapiens, concentration giving 50% cell survival, reported as ranges
Method in brief: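 After overnight seeding in McCoy's medium with 10% FBS, SK-OV-3 cells were exposed to compound at 0.003-10 μM for 72 hrs at 37° C. MTT was then added for 3 h, with DMSO solubilization and OD read at 535 nm. CC50 is the concentration giving 50% survival relative to untreated control, reported as ranges.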

T1 sequence (P98170 241-356 limits assumed): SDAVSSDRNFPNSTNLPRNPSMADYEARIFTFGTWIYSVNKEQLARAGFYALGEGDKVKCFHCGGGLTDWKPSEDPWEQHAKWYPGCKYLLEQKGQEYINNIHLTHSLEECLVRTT

SMILES | Kd [1] [nM] | Kd [2] [nM] | CC50 [3] [nM]
CNC(=O)N1C[C@H](OCc2ccc(F)cc2)[C@@H]2[C@H]1CCN2C(=O)[C@@H](NC(=O)[C@H](C)NC)C(C)(C)C [Example 36, 4-[3,3-Dimethyl-2-(2-methylamino-propionylamino)-butyryl]-3-(4-fluoro-benzyloxy)-hexahydro-pyrrolo[3,2-b]pyrrole-1-carboxylic acid methylamide] | 100 to 1000 | < 100 | < 100
CNC(=O)N1C[C@H](Oc2ccc(F)cc2)[C@@H]2[C@H]1CCN2C(=O)[C@@H](NC(=O)[C@H](C)NC)C(C)(C)C [Example 27, 4-[3,3-Dimethyl-2-(2-methylamino-propionylamino)-butyryl]-3-(4-fluoro-phenoxy)-hexahydro-pyrrolo[3,2-b]pyrrole-1-carboxylic acid methylamide] | < 100 | < 100 | < 100
CN[C@@H](C)C(=O)N[C@H](C(=O)N1CC[C@@H]2[C@H]1[C@@H](COc1ccc(F)c(F)c1)CN2S(C)(=O)=O)C(C)(C)C [Example 63, N-{1-[6-(3,4-Difluoro-phenoxymethyl)-4-methanesulfonyl-hexahydro-pyrrolo[3,2-b]pyrrole-1-carbonyl}-2,2-dimethyl-propyl]-2-methylamino propionamide] | < 100 | < 100 | < 100
CN[C@@H](C)C(=O)N[C@H](C(=O)N1CC[C@@H]2[C@H]1[C@@H](Oc1ccc(F)c(F)c1)CN2S(=O)(=O)CC(C)C)C(C)(C)C [Example 20, N-{1-[6-(3,4-Difluoro-phenoxy)-4-(2-methyl-propane-1-sulfonyl)-hexahydro-pyrrolo[3,2-b]pyrrole-1-carbonyl]-2,2-dimethyl-propyl}-2-methylamino-propionamide] | < 100 | < 100 | < 100
CN[C@@H](C)C(=O)N[C@H](C(=O)N1CC[C@@H]2[C@H]1[C@@H](Oc1ccccc1)CN2C(=O)OC(C)(C)C)C(C)C [Example 1, 4-[3-Methyl-2-(2-methylamino-propionylamino)-butyryl]-3-phenoxy-hexahydro-pyrrolo[3,2-b]pyrrole-1-carboxylic acid tert-butyl ester] | 100 to 1000 | < 100 | < 100
CN[C@@H](C)C(=O)N[C@H](C(=O)N1CC[C@@H]2[C@H]1[C@@H](COc1ccc(F)c(F)c1)CN2C(=O)NC(C)C)C(C)(C)C [Example 67, 3-(3,4-Difluoro-phenoxymethyl)-4-[3.3-dimethyl-2-(2-methylaminopropionylamino)-butyryl]-hexahydro-pyrrolo[3,2-b]pyrrole-1-carboxylic acid isopropylamide] | < 100 | < 100 | < 100
CN[C@@H](C)C(=O)N[C@H](C(=O)N1CC[C@@H]2[C@H]1[C@@H](Oc1ccccc1)CN2C(C)=O)C(C)C [Example 2, N-[1-(4-Acetyl-6-phenoxy-hexahydro-pyrrolo[3,2-b]pyrrole-1-carbonyl)-2-methyl-propyl]-2-methylamino-propionamide] | 1000 to 10000 | < 100 | < 100
CN[C@@H](C)C(=O)N[C@H](C(=O)N1CC[C@@H]2[C@H]1[C@@H](Oc1ccc(F)c(F)c1)CN2S(C)(=O)=O)C1CCCCC1 [Example 13, N-{1-Cyclohexyl-2-[6-(3,4-difluoro-phenoxy)-4-methanesulfonyl-hexahydro-pyrrolo[3,2-b]pyrrol-1-yl]-2-oxo-ethyl}-2-methylamino-propionamide] | < 100 | < 100 | < 100
CN[C@@H](C)C(=O)N[C@H](C(=O)N1CC[C@@H]2[C@H]1[C@@H](Oc1ccc(F)c(F)c1)CN2S(C)(=O)=O)C(C)(C)C [Example 19, N-{1-[6-(3,4-Difluoro-phenoxy)-4-methanesulfonyl-hexahydro-pyrrolo[3,2-b]pyrrole-1-carbonyl]-2,2-dimethyl-propyl}-2-methylamino-propionamide] | < 100 | < 100 | < 100
CN[C@@H](C)C(=O)N[C@H](C(=O)N1CC[C@@H]2[C@H]1[C@@H](COc1ccc(F)c(F)c1)CN2C(C)=O)C(C)(C)C [Example 65, N-{1-[4-Acetyl-6-(3,4-difluoro-phenoxymethyl)-hexahydro-pyrrolo[3,2-b]pyrrole-1-carbonyl]-2,2-dimethyl-propyl}-2-methylamino propionamide] | < 100 | < 100 | < 100
CN[C@@H](C)C(=O)N[C@H](C(=O)N1CC[C@@H]2[C@H]1[C@@H](Oc1ccc(F)c(F)c1)CN2c1ncccn1)C(C)(C)C [Example 18, N-{1-[6-(3,4-Difluoro-phenoxy)-4-pyrimidin-2-yl-hexahydro-pyrrolo[3,2-b]pyrrole-1-carbonyl]-2,2-dimethyl-propyl}-2-methylamino-propionamide] | < 100 | < 100 | < 100
CN[C@@H](C)C(=O)N[C@H](C(=O)N1CC[C@@H]2[C@H]1[C@@H](OC(=O)N1CCOCC1)CN2C(=O)NC(C)C)C(C)(C)C [Example 60, Morpholine-4-carboxylic acid 4-[3,3-dimethyl-2-(2-methylamino-propionylamino)-butyryl]-1-isopropylcarbamoyl-octahydro-pyrrolo[3,2-b]pyrrol-3-yl ester] | 1000 to 10000 | < 100 | 1000 to 10000
CN[C@@H](C)C(=O)N[C@H](C(=O)N1CC[C@H]2NC[C@H](OCc3ccc(F)cc3)[C@H]21)C(C)(C)C [Example 35, N-{1-[6-(4-Fluoro-benzyloxy)-hexahydro-pyrrolo[3,2-b]pyrrole-1-carbonyl]-2,2-dimethyl-propyl}-2-methylamino-propionamide ester] | 100 to 1000 | < 100 | < 100
CN[C@@H](C)C(=O)N[C@H](C(=O)N1CC[C@H]2NC[C@H](COc3ccc(F)c(F)c3)[C@H]21)C(C)(C)C [Example 64, N-{1-[6-(3,4-Difluoro-phenoxymethyl)-hexahydro-pyrrolo[3,2-b]pyrrole-1-carbonyl]-2,2-dimethyl-propyl}-2-methylamino propionamide] | < 100 | < 100 | < 100
CN[C@@H](C)C(=O)N[C@H](C(=O)N1CC[C@@H]2[C@H]1[C@@H](OCc1ccc(F)cc1)CN2C(=O)NC(C)C)C(C)(C)C [Example 37, 4-[3,3-Dimethyl-2-(2-methylamino-propionylamino)-butyryl]-3-(4-fluoro-benzyloxy)-hexahydro-pyrrolo[3,2-b]pyrrole-1-carboxylic acid isopropylamide] | < 100 | < 100 | < 100
CN[C@@H](C)C(=O)N[C@H](C(=O)N1CC[C@@H]2[C@H]1[C@@H](OC(=O)NC1CCCCC1)CN2C(=O)NC(C)C)C(C)(C)C [Example 57, Cyclohexyl-carbamic acid 4-[3,3-dimethyl-2-(2-methylamino-propionylamino)-butyryl]-1-isopropylcarbamoyl-octahydro-pyrrolo[3,2-b]pyrrol-3-yl ester] | 100 to 1000 | < 100 | < 100
CN[C@@H](C)C(=O)N[C@H](C(=O)N1CC[C@@H]2[C@H]1[C@@H](COc1ccc(F)c(F)c1)CN2c1ncccn1)C(C)(C)C [Example 72, N-{1-[6-(3,4-Difluoro-phenoxymethyl)-4-pyrimidin-2-yl-hexahydro-pyrrolo[3,2-b]pyrrole-1-carbonyl]-2,2-dimethylpropyl}-2-methylamino-propionamide] | 100 to 1000 | < 100 | < 100
CN[C@@H](C)C(=O)N[C@H](C(=O)N1CC[C@@H]2[C@H]1[C@@H](OCc1ccc(F)cc1)CN2C1CCCC1)C(C)(C)C [Example 44, (S)—N—((S)-1-((3aR,6S,6aS)-4-cyclopentyl-6-(4-fluorobenzyloxy)hexahydropyrrolo[3,2-b]pyrrol-1(2H)-yl)-3,3-dimethyl-1-oxobutan-2-yl)-2-(methylamino) propanamide] | 100 to 1000 | < 100 | < 100
CN[C@@H](C)C(=O)N[C@H](C(=O)N1CC[C@@H]2[C@H]1[C@@H](Oc1ccc(F)cc1)CN2S(C)(=O)=O)C1CCCCC1 [Example 10, N-{1-Cyclohexyl-2-[6-(4-fluoro-phenoxy)-4-methanesulfonyl-hexahydro-pyrrolo[3,2-b]pyrrol-1-yl]-2-oxo-ethyl}-2-methylamino-propionamide] | < 100 | < 100 | < 100
CN[C@@H](C)C(=O)N[C@H](C(=O)N1CC[C@@H]2[C@H]1[C@@H](OC(=O)NC(C)C)CN2C(=O)NC(C)C)C(C)(C)C [Example 54, Isopropyl-carbamic acid 4-[3,3-dimethyl-2-(2-methylamino-propionylamino)-butyryl]-1-isopropylcarbamoyl-octahydro-pyrrolo[3,2-b]pyrrol-3-yl ester] | 1000 to 10000 | < 100 | 1000 to 10000
CN[C@@H](C)C(=O)N[C@H](C(=O)N1CC[C@@H]2[C@H]1[C@@H](Oc1ccc(F)c(F)c1)CN2C(=O)NC(C)C)C(C)(C)C [Example 24, 3-(3,4-Difluoro-phenoxy)-4-[3,3-dimethyl-2-(2-methylamino-propionylamino)-butyryl]-hexahydro-pyrrolo[3,2-b]pyrrole-1-carboxylic acid isopropylamide] | < 100 | < 100 | < 100
